Values of other authors, collected in US20080020052A1, “Vascular Embolus Of Paclitaxel-Sodium Alginate Microsphere And Its Preparation” (priority 2004, published 2008).

Which “plasma and protein binding ratio” value does the source give for `CC(=O)O[C@H]1C(=O)[C@@]2(C)[C@H]([C@H](OC(=O)c3ccccc3)[C@]3(O)C[C@H](OC(=O)[C@H](O)[C@@H](NC(=O)c4ccccc4)c4ccccc4)C(C)=C1C3(C)C)[C@]1(OC(C)=O)CO[C@@H]1C[C@@H]2O` [Paclitaxel, paclitaxel] here?
The value was 89-98%.
